Experimental data published in publication PMC6268773, “Aminodi(hetero)arylamines in the Thieno[3,2-b]pyridine Series: Synthesis, Effects in Human Tumor Cells Growth, Cell Cycle Analysis, Apoptosis and Evaluation of Toxicity Using Non-Tumor Cells” (Molecules, 2012).

Columns and labels:
[1] = system: HepG2 (hepatocellular carcinoma); assay: SRB cell growth inhibition assay, HepG2; format: cell-based; conditions: Homo sapiens, HepG2, 48h continuous treatment, mean ± SD, n = 3
Description: (§1) The effects of the aminodi(hetero)arylamines in the growth of four human tumour cell lines (MCF-7, A375-C5, NCI-H460 and HepG2) were evaluated using the SRB assay. Doxorubicin and ellipticine were used as positive controls. Furthermore, to investigate the possible toxicity of the compounds, the in vitro cell growth inhibition assay (SRB) was also performed using porcine liver non-tumor cells (PLP1) established by us.
(§2) Four human tumor cell lines, MCF-7 (breast adenocarcinoma), A375-C5 (melanoma), NCI-H460 (non-small cell lung cancer) and HepG2 (hepatocellular carcinoma) were used. MCF-7, A375-C5 and HepG2 were obtained from the European Collection of Cell Cultures (ECACC, Salisbury, UK) and NCI-H460 was kindly provided by the National Cancer Institute (NCI, Bethesda, MD, USA). Cells were routinely maintained as adherent cell cultures in RPMI-1640 medium supplemented with 5% FBS (MCF-7, NCI-H460 and A375-C5 cells) or in DMEM supplemented with 10% FBS, 2 mM glutamine, 100 U/mL penicillin and […] streptomycin (HepG2 cells), at 37 °C in a humidified atmosphere containing 5% CO2.
(§3) The effects of the compounds on the in vitro growth of human tumor cell lines and non-tumor porcine liver primary cells were evaluated according to the procedure adopted by the NCI (USA) in their “In vitro Anticancer Drug Discovery Screen”, using the SRB assay to assess cell growth.
(§4) For the cell lines, exponentially growing cells were obtained by plating 1.5 × 10^5 cells/mL for MCF-7, 0.75 × 10^5 cells/mL for A375-C5 and NCI-H460, and 5.0 × 10^5 cells/mL for HepG2, followed by 24 h of incubation. For the primary porcine liver cells, cells were incubated in 96-well plates at a density of 5.0 × 10^5 cells/mL, and cultivated in DMEM medium with 10% FBS, 100 U/mL penicillin and […] streptomycin.
(§5) Following a 24 h period to allow cells to adhere, cells were treated for 48 h with six serial dilutions of each test compound, starting from a maximum concentration of 125 µM. Following the 48 h treatment period, adherent cells were fixed in situ, washed and stained with SRB. The bound stain was solubilized and the absorbance was measured at 492 nm in the case of MCF-7, NCI-H460 and A375-C5 cells and at 515 nm in the case od HepG2 and PLP1 primary cells, in a plate reader (Biotek Instruments Inc., Powerwave XS, Bedfordshire, UK). Dose response curves were obtained and the concentration of the diarylamine that inhibited 50% of the net cell growth (GI50) was calculated as described elsewhere. Doxorubicin and ellipticine were used as positive controls of cell growth inhibition.

[2] = system: MCF-7 (breast adenocarcinoma); assay: SRB cell growth inhibition assay, MCF-7; format: cell-based; conditions: Homo sapiens, MCF7, MCF-7, 48h continuous treatment, mean ± SD, n = 3
Description: as §1, §2, §3, §4, §5

[3] = SRB toxicity assay in non-tumor porcine liver primary cells; format: cell-based; conditions: pig, porcine liver primary cell culture (PLP1), non-tumor, PLP1 non-tumor porcine liver cells, 48h continuous treatment, SRB, mean ± SD, n = 3
Description: as §1
(§6) Porcine liver primary cell culture (PLP1) was prepared from freshly harvested porcine liver, obtained from a local slaughter house. Briefly, the liver tissue was rinsed in HBSS solution containing 100 U/mL penicillin, 100 µg/mL streptomycin and divided into 1 × 1 mm^3 explants. Some of these explants were placed in 25 cm^2 tissue flasks in DMEM medium supplemented with 10% FBS, 2 mM nonessential amino acids, 100 U/mL penicillin and […] streptomycin. This cell culture was maintained according to the procedure described previously by us.
as §3, §4, §5

A375-C5 (melanoma) = assay: SRB cell growth inhibition assay, A375-C5; format: cell-based; conditions: Homo sapiens, A375-C5, 48h continuous treatment, mean ± SD, n = 3
Description: as §1, §2, §3, §4, §5

[4] = system: NCI-H460 (non-small cell lung cancer); assay: SRB cell growth inhibition assay, NCI-H460; format: cell-based; conditions: Homo sapiens, NCI-H460, 48h continuous treatment, mean ± SD, n = 3
Description: as §1, §2, §3, §4, §5

NCI-H460 cells [5] = assay: Apoptosis by flow cytometry (Annexin V-FITC/PI); format: cell-based, human; conditions: NCI-H460, compound at GI50 concentration (1.4 μM), 48 h, Annexin V/Propidium iodide
Description: Following 48 h treatment of NCI-H460 cells with compound 3c, as described above, the levels of apoptosis were analysed by flow cytometry using the Human Annexin V-FITC/PI apoptosis kit (Bender MedSystems, Vienna, Austria), according to the manufacturer’s instructions. Flow cytometry was carried out using an Epics XL-MCL Coulter flow cytometer plotting at least 20,000 events per sample, as previously described. The data was analysed using the FlowJo 7.2 software (Tree Star, Inc.).

[6] = system: human tumor cell lines MCF-7, A375-C5, NCI-H460 and HepG2; assay: SRB cell growth inhibition, all tested human tumor cell lines (summary); format: cell-based; conditions: span over MCF-7, A375-C5, NCI-H460, HepG2, 48 h
Description: as §1, §3
For the cell lines, exponentially growing cells were obtained by plating 1.5 × 10^5 cells/mL for MCF-7, 0.75 × 10^5 cells/mL for A375-C5 and NCI-H460, and 5.0 × 10^5 cells/mL for HepG2, followed by 24 h of incubation. […]
Following a 24 h period to allow cells to adhere, cells were treated for 48 h with six serial dilutions of each test compound, starting from a maximum concentration of 125 µM. […] The bound stain was solubilized and the absorbance was measured at 492 nm in the case of MCF-7, NCI-H460 and A375-C5 cells and at 515 nm in the case od HepG2 and PLP1 primary cells, in a plate reader (Biotek Instruments Inc., Powerwave XS, Bedfordshire, UK). […]

[7] = system: porcine liver primary cell culture (PLP1); assay: SRB toxicity assay in non-tumor porcine liver primary cells; format: cell-based
Description: as §1, §6, §3, §4, §5

NCI-H460 cells [8] = assay: Cell cycle distribution profile by flow cytometry (propidium iodide); format: cell-based, human; conditions: NCI-H460, compound at GI50 concentration (1.4 μM), 48 h
Description: NCI-H460 cells were plated in 6-well plates at a final density of 1.5 × 10^5 cells/well and incubated at 37 °C for 24 h. […] As controls, cells were also incubated with medium only (blank) and with the compound’s vehicle (DMSO). Following 48 h of treatment, cells were fixed overnight in ice-cold 70% ethanol and re-suspended in PBS containing 0.1 mg/mL RNase A and 5 µg/mL propidium iodide. Cellular DNA content was analysed by flow cytometry using an Epics XL-MCL Coulter Flow cytometer (Brea, CA, USA) plotting at least 20,000 events per sample, as previously described. The analysis of cell cycle distribution was subsequently performed using the FlowJo 7.2 software (Tree Star, Inc., Ashland, USA) after cell debris and aggregates exclusion.

COC(=O)c1sc2cccnc2c1Nc1ccc([N+](=O)[O-])cc1 [2a, Methyl 3-(4-nitrophenylamino)thieno[3,2-b]pyridine-2-carboxylate]
melting point: 203 to 205 °C

COC(=O)c1sc2cccnc2c1Nc1ccccc1[N+](=O)[O-] [2b, Methyl 3-(2-nitrophenylamino)thieno[3,2-b]pyridine-2-carboxylate]
melting point: 202 to 204 °C

COC(=O)c1sc2cccnc2c1Nc1ccc(OC)cc1[N+](=O)[O-] [2c, Methyl 3-(4-methoxy-2-nitrophenylamino)thieno[3,2-b]pyridine-2-carboxylate]
melting point: 213 to 214 °C

COC(=O)c1sc2cccnc2c1Nc1ccc(N)cc1 [3a, Methyl 3-(4-aminophenylamino)thieno[3,2-b]pyridine-2-carboxylate]
GI50 [1]: > 125 µM | GI50 [2]: > 125 µM | GI50 at 48 h [3]: > 125 µM | GI50 (A375-C5 (melanoma)): 112 ± 5 µM | GI50 [4]: > 125 µM

COC(=O)c1sc2cccnc2c1Nc1ccccc1N [3b, Methyl 3-(2-aminophenylamino)thieno[3,2-b]pyridine-2-carboxylate]
GI50 [1]: 99.26 ± 0.92 µM | GI50 [2]: 33.8 ± 1.7 µM | GI50 at 48 h [3]: 61.3 µM | GI50 (A375-C5 (melanoma)): 26 ± 2.3 µM | melting point: 204 to 206 °C | GI50 [4]: 31.3 ± 2.9 µM

COC(=O)c1sc2cccnc2c1Nc1ccc(OC)cc1N [3c, Methyl 3-(2-amino-4-methoxhyphenylamino)thieno[3,2-b]pyridine-2-carboxylate]
percentage of apoptotic cells (NCI-H460 cells [5]): 36.6 ± 4.8% | GI50 [1]: 1.63 ± 0.09 µM | GI50 [6]: < 2 µM | GI50 [2]: 1.4 ± 0.2 µM | GI50 at 48 h [3]: 12.5 µM | toxicity to non-tumor cells (in words) ([7]; PLP1, at the GI50 concentrations found in tumor cell lines / versus ellipticine): did not show toxicity | percentage of cells in the G0/G1 phase of the cell cycle (in words) (NCI-H460 cells [8]): significant decrease | % of cells in the sub-G1 peak (in words) (NCI-H460 cells [8]; data not shown): significantly increased | GI50 (A375-C5 (melanoma)): 1.3 ± 0.1 µM | melting point: 172 to 174 °C | GI50 [4]: 1.4 ± 0.4 µM

COc1cccc2c1C(=O)c1c(O)c3c(c(O)c1C2=O)C[C@@](O)(C(=O)CO)C[C@@H]3O[C@H]1C[C@H](N)[C@H](O)[C@H](C)O1 [Doxorubicin, reference compound]
GI50 [2]: 0.04 ± 0.01 µM | GI50 (A375-C5 (melanoma)): 0.13 ± 0.01 µM | GI50 [4]: 0.09 ± 0.01 µM

Cc1c2ccncc2c(C)c2c1[nH]c1ccccc12 [Ellipticine, reference compound]
GI50 [1]: 0.8 ± 0.05 µM | GI50 at 48 h [3]: 4 µM | GI50 ([7]; PLP1 non-tumor porcine liver cells, 48h continuous treatment, SRB, mean ± SD, n = 3): 4.19 µM
